Like-named read-outs stand apart in the source and are kept apart here.
Legend:
[1] = tested on: skeletal muscular strength in mice; test: Grip strength test; assay type: in vivo, Swiss mice; details: compound alone 50 mg kg^−1 i.p. + vehicle; mean ± S.E.M.
Description: The effects of combinations of modafinil (50 mg kg^−1), sulfone and acid metabolites (50 mg kg^−1), or GBR 12909 (25 mg kg^−1) with different classical AEDs at doses corresponding to their ED50 values from the MES test on skeletal muscular strength in mice were quantified by the grip strength test of Meyer et al. ([1979]). The grip strength apparatus (BioSeb, Chaville, France) comprised a wire grid (8 × 8 cm) connected to an isometric force transducer (dynamometer). The mice were lifted by the tails so that their forepaws could grasp the grid. The mice were then gently pulled backward by the tail until the grid was released. The maximal force exerted by the mouse before losing grip was recorded. The mean of three measurements for each animal was calculated, and subsequently, the mean maximal force of eight animals per group was determined. The muscular strength in mice is expressed in N (newtons) as the means ± S.E.M. of at least eight determinations.

CYP3A4/5 = details: human liver microsomes; ref Robertson and Hellriegel [2003]; cited from earlier work
[2] = tested on: MES-induced seizures in mice; design: method as in Chatterjie et al. [2004]; details: 300 mg kg^−1 i.p., administered alone, ref Chatterjie et al. [2004]; cited from earlier work
[3] = tested on: threshold for electroconvulsions in mice; test: Maximal electroshock seizure threshold (MEST) test
[4] = tested on: passive avoidance performance in mice; test: Step-through passive avoidance task; assay type: in vivo, Swiss mice; details: compound alone 50 mg kg^−1 i.p. + vehicle; median (25th; 75th percentiles); observed up to 180 s
Description: The effects of combinations of modafinil (50 mg kg^−1), its metabolites (50 mg kg^−1), or GBR 12909 (25 mg kg^−1) with different classical AEDs were quantified by the step-through passive avoidance task of Venault et al. ([1986]). AEDs were administered at doses corresponding to their ED50 values from the MES test. Each animal received an AED either alone or in combination either with modafinil, sulfone, and acid metabolites or with GBR 12909 on the first day before training. The time before commencement of the training session (after drug administration) in the step-through passive avoidance task was identical to that for the MES test. Subsequently, the animals were placed in an illuminated box (10 × 13 × 15 cm) connected to a larger dark box (25 × 20 × 15 cm) equipped with an electric grid floor. Entrance of the animals to the dark box was punished by an adequate electric footshock (0.6 mA for 2 s). […] On the following day (24 h later), the pretrained animals were placed again into the illuminated box and observed for up to 180 s. Mice that avoided the dark compartment for 180 s were considered as having remembered the task. The time the mice took to enter the dark box was noted, and the median latencies (retention times) with 25th and 75th percentiles were calculated.

[5] = tested on: locomotor activation in mice; design: method as in Paterson et al. [2010]; details: ref Paterson et al. [2010]; cited from earlier work
CYP2C9 = details: human hepatocytes; ref Robertson and Hellriegel [2003]; cited from earlier work
[6] = tested on: motor coordination in mice; test: Chimney test; assay type: in vivo, Swiss mice; details: compound alone 50 mg kg^−1 i.p. + vehicle; n = 8 mice/group
Text: The chimney test of Boissier et al. ([1960]) was used to quantify the adverse effect potential of classical AEDs administered in combination with modafinil, its metabolites, or GBR 12909. In this test, the animals had to climb backwards up a plastic tube (3-cm inner diameter, 30 cm long), and impairment of motor performance was indicated by the inability of the mice to climb backward up the transparent tube within 60 s.

[7] = tested on: electroconvulsions in mice; design: method as in Chen et al. [2007]; details: ref Chen et al. [2007], cited from earlier work

NC(=O)C[S+]([O-])C(c1ccccc1)c1ccccc1 (stereo not shown) [MOD, diphenylmethylsulfinylacetamide]
Grip strength [1]: 0.908 ± 0.053 N
Inhibition of CYP3A4/5 (CYP3A4/5): weak inhibition
Protection against MES-induced seizures [2]: 100%
TI (percentage of threshold increase over vehicle control) ([3]; 12.5 mg kg^−1 i.p.): −2.78%
TI (percentage of threshold increase over vehicle control) ([3]; 25 mg kg^−1 i.p.): 2.78%
TI (percentage of threshold increase over vehicle control) ([3]; 50 mg kg^−1 i.p.): 22.88%
TI (percentage of threshold increase over vehicle control) ([3]; 75 mg kg^−1 i.p.): 35.46%
TID20 (dose that increases threshold by 20 %) ([3]; i.p., 30 min before test, from linear regression of dose vs threshold increase): 49.12 mg/kg
Retention time [4]: 180 (123.5; 180) s
Dose eliciting equivalent locomotor activation [5]: 150 mg/kg
Inhibition of CYP2C9 (CYP2C9): inhibit
Motor coordination impairment (number of animals showing impairment in the chimney test) [6]: 0/8
Mice protected against electroconvulsions ([7]; 22.5 mg kg^−1 i.p.): 50%
Mice protected against electroconvulsions ([7]; 45 mg kg^−1 i.p.): 70%
Mice protected against electroconvulsions ([7]; 90 mg kg^−1 i.p.): 90%
Mice protected against electroconvulsions ([7]; 180 mg kg^−1 i.p.): 70%
